This is an account of results in US11945798B2, “Substituted aminopyridine compounds as EGFR inhibitors” (YUHAN CORPORATION, priority 2021, dated 2024).

For one assay, the target named is EGFR L858R/C797S (Homo sapiens, UniProt P00533, C797S/L858R). The experiment in a line: Biochemical EGFR kinase assay (Lance Ultra TR-FRET), L858R/C797S. Here is the method:
Biochemical EGFR kinase assays were conducted using Lance Ultra time-resolved fluorescence resonance energy transfer (TR-FRET) technology from Perkin-Elmer. Compounds of the invention were initially diluted to 20 mM in 100% DMSO for storage and made into kinase buffer solution to create a compound concentration ranging from 0.003 μM and 10 μM.
Each kinase reactions were incubated at room temperature for 1 hour and then stopped by the addition of 4 μL of stop solution (10 mM EDTA). The specific Europium-labeled-anti-phosphopeptide antibody (PerkinElmer, AD0069) diluted in LANCE detection buffer was then added to a final concentration of 2 nM. After 60 minutes incubation at room temperature the LANCE signal was measured on an EnVision Multilabel Reader (Perkin-Elmer). Excitation wavelength was set at 320 nm and emission monitored at 615 nm (donor) and 665 nm (acceptor). The IC50 values were determined using GraphPad prism software (GraphPad Software, Inc., San Diego, CA, USA).
(In general: TR-FRET usually uses a lanthanide donor and a delayed reading to cut background.)

For the next assay, the target named is EGFR wildtype (WT) (Homo sapiens, UniProt P00533). The experiment in a line: Biochemical EGFR kinase assay (Lance Ultra TR-FRET), wildtype. The method, boiled down: (§1)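 Enzyme reactions lasted 1 hour at room temperature with test compounds between 0.003 and 10 μM, followed by 10 mM EDTA quench.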
Another assay deals with EGFR del19/C797S (Homo sapiens, UniProt P00533, C797S/DEL746-750). The experiment in a line: Biochemical EGFR kinase assay (Lance Ultra TR-FRET), del19/C797S. The method, boiled down:
as §1

Another assay concerns the target EGFR L858R/T790M/C797S (Homo sapiens, UniProt P00533, C797S/L858R/T790M). The experiment in a line: Biochemical EGFR kinase assay (Lance Ultra TR-FRET), L858R/T790M/C797S. The method, boiled down:
as §1

Another assay addresses EGFR del19/T790M/C797S (Homo sapiens, UniProt P00533, C797S/DEL746-750/T790M). The experiment in a line: Biochemical EGFR kinase assay (Lance Ultra TR-FRET), del19/T790M/C797S. The method, boiled down: as §1
[1] abbreviates: IC50 L858R/C797S (nM) 100 μM ATP, 100 μM ATP.
The mark [2] stands for this setting: IC50 WT (nM) 100 μM ATP, 100 μM ATP.
Setting [3] is: IC50 del19/C797S (nM) 100 μM ATP, 100 μM ATP.
The mark [4] stands for this setting: IC50 L858R/T790M/C797S (nM) 100 μM ATP, 100 μM ATP.
[5] abbreviates: IC50 del19/T790M/C797S (nM) 100 μM ATP, 100 μM ATP.
[6] abbreviates: Km ATP, read-out: IC50 L858R/C797S (nM) Km ATP.
The mark [7] stands for this setting: Km ATP, read-out: IC50 WT (nM) Km ATP.
Setting [8] is: Km ATP, read-out: IC50 del19/C797S (nM) Km ATP.
Where [9] appears, read: Km ATP, read-out: IC50 L858R/T790M/C797S (nM) Km ATP.
Where [10] appears, read: Km ATP, read-out: IC50 del19/T790M/C797S (nM) Km ATP.

Read-outs that look alike come from different tables or passages of the source.

Sequence of EGFR L858R/T790M/C797S (P00533 25-1210 T790M/C797S/L858R): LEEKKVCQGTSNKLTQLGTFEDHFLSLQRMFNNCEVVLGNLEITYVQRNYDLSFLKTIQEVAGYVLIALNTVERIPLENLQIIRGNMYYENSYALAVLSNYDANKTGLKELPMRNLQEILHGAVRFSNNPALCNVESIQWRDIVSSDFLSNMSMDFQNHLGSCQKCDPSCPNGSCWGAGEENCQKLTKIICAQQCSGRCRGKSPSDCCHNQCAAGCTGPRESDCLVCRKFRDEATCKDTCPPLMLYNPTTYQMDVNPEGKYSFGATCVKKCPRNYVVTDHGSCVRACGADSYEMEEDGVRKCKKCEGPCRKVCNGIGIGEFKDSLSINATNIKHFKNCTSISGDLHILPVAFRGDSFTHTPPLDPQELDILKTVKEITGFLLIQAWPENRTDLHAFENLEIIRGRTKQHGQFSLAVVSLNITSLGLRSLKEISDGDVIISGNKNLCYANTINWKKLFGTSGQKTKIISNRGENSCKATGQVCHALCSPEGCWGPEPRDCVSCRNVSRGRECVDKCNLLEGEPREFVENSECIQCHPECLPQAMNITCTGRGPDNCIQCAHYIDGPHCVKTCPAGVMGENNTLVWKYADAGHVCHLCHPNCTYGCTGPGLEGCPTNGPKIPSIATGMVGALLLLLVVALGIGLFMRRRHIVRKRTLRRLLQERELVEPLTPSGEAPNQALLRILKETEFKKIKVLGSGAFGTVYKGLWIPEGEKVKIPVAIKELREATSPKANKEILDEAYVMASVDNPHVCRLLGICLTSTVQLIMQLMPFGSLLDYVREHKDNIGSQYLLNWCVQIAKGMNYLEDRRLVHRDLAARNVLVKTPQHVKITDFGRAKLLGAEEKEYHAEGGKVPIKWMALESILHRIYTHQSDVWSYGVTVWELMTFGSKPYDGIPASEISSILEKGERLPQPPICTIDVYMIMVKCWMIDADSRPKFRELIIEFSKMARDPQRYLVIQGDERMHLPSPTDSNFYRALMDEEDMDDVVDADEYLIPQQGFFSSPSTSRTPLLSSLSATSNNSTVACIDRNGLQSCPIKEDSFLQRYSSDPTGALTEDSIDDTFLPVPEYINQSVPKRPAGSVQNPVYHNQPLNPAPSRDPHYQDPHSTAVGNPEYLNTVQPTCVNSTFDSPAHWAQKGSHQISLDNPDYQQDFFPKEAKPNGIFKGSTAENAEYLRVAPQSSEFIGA
Sequence of EGFR del19/C797S (P00533 with tags, fused parts or gaps DEL746-750/C797S): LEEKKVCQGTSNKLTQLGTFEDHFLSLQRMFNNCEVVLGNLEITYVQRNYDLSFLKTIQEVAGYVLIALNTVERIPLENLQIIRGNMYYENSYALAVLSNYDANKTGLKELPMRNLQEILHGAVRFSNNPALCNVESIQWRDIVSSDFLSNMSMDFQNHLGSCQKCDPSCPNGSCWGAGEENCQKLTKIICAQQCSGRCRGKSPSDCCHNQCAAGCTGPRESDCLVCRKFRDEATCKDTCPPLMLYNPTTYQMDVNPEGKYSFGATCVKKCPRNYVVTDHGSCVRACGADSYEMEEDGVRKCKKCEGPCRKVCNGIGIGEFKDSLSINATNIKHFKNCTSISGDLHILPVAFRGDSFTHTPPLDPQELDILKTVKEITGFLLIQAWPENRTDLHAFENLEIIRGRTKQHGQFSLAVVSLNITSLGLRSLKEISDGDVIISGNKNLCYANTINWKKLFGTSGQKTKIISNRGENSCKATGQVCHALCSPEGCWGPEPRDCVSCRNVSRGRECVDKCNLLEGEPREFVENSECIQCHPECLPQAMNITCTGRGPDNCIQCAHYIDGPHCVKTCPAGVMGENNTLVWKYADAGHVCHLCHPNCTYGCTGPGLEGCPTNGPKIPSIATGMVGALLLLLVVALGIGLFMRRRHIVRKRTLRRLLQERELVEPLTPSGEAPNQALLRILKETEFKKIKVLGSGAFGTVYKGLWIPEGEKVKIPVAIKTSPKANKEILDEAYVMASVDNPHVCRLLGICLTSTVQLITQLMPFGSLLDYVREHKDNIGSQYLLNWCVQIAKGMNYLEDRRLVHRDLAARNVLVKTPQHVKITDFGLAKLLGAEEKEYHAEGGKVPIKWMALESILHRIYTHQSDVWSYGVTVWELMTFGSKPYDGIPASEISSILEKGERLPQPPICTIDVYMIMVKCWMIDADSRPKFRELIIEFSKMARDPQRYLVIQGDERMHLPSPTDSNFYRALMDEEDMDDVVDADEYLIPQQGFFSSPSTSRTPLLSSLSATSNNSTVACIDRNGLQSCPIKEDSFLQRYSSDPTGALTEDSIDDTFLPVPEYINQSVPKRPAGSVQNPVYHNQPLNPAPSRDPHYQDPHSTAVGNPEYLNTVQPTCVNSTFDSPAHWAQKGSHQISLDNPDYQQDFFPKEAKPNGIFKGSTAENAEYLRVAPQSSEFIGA
Sequence of EGFR L858R/C797S (P00533 25-1210 C797S/L858R): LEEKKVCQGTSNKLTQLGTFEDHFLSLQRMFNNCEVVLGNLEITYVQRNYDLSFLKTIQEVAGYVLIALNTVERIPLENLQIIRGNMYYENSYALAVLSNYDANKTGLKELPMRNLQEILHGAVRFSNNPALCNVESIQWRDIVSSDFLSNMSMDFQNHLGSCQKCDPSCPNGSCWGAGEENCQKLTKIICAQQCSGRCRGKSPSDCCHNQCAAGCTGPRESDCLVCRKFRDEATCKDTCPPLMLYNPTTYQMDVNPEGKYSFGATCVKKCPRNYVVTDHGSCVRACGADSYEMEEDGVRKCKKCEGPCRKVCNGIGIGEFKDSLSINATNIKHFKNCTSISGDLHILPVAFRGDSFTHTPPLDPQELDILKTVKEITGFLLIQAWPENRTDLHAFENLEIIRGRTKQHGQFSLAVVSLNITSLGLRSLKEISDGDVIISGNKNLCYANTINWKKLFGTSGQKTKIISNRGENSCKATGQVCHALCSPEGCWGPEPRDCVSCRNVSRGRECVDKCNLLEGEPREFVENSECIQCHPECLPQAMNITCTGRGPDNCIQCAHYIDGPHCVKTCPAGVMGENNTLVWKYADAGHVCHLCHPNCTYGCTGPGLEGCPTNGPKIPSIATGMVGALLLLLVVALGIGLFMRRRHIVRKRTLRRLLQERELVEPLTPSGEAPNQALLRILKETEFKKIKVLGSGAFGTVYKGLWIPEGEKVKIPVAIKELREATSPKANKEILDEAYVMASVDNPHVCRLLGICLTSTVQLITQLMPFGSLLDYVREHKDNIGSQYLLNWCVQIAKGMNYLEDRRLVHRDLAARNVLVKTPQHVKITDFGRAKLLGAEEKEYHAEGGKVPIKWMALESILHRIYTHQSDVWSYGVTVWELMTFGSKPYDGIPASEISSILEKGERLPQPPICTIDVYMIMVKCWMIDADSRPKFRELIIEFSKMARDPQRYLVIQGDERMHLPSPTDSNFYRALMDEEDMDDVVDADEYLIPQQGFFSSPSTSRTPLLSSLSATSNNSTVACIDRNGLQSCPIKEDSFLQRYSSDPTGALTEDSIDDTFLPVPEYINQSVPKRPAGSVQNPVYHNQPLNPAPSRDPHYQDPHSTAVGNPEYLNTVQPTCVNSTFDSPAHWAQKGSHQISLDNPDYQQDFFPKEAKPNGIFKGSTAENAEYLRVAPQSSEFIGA
Sequence of EGFR wildtype (WT) (P00533 25-1210): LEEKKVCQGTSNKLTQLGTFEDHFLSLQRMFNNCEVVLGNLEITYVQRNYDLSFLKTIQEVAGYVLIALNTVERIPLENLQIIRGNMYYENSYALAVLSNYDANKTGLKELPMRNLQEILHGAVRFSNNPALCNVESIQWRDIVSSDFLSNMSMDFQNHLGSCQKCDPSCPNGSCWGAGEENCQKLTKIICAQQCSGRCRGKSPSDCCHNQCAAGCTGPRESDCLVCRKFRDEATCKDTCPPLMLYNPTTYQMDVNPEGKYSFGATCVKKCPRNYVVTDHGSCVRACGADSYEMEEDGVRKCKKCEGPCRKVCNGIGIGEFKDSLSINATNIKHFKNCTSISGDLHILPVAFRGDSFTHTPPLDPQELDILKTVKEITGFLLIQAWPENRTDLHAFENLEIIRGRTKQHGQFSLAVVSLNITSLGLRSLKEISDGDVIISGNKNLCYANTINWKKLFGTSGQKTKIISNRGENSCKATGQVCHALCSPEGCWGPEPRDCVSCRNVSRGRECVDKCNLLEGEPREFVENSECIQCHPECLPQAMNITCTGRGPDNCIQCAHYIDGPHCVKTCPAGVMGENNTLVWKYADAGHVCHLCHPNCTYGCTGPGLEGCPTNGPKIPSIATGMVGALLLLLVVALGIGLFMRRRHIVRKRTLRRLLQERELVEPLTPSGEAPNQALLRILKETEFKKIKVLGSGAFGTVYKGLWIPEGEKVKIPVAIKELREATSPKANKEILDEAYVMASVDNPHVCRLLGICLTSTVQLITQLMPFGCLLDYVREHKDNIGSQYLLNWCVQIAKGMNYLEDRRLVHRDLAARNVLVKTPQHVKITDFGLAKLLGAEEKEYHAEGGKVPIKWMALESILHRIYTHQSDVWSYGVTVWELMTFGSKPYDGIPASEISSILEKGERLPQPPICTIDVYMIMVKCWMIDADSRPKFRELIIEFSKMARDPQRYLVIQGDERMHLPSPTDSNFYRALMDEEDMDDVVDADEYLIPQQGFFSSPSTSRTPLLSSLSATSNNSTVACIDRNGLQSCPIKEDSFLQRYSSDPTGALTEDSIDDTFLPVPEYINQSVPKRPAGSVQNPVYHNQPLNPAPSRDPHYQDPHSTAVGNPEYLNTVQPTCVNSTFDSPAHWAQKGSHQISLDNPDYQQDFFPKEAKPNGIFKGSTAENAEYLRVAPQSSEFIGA

Turning to `O=C(c1cnc(Nc2ccnc(-c3cnn(S(=O)(=O)C4CC4)c3)n2)cc1NC1CCCOC1)C1CC1` (centres unmarked) [Example 34, Cyclopropyl(6-((2-(1-(cyclopropylsulfonyl)-1H-pyrazol-4-yl)pyrimidin-4-yl)amino)-4-((tetrahydro-2H-pyran-3-yl)amino)pyridin-3-yl)methanone], the IC50 is 398 nM at EGFR L858R/C797S (setting [1]); greater than 10000 nM against EGFR wildtype (WT) (setting [2]); 124 nM on EGFR del19/C797S (setting [3]); 5.3 nM against EGFR L858R/T790M/C797S (setting [4]); 2 nM on EGFR del19/T790M/C797S (setting [5]).
Consider `O=C(c1cnc(Nc2ccnc(-c3cnn(S(=O)(=O)C4CC4)c3)n2)cc1N[C@H]1CC[C@@H](O)C1)C1CC1` [Example 25, Cyclopropyl(6-((2-(1-(cyclopropylsulfonyl)-1H-pyrazol-4-yl)pyrimidin-4-yl)amino)-4-(((1S,3R)-3-hydroxycyclopentyl)amino)pyridin-3-yl)methanone], for which the IC50 against EGFR L858R/C797S (setting [1]) was 29.4 nM; on EGFR wildtype (WT) (setting [2]) it was greater than 10000 nM; against EGFR del19/C797S (setting [3]), 11.8 nM; on EGFR L858R/T790M/C797S (setting [4]), 1 nM; against EGFR del19/T790M/C797S (setting [5]) it was 0.9 nM.
For `O=C(c1cnc(Nc2ccnc(-c3cnn(S(=O)(=O)C4CC4)c3)n2)cc1NCCC1(O)CC1)C1CC1` [Example 29, Cyclopropyl(6-((2-(1-(cyclopropylsulfonyl)-1H-pyrazol-4-yl)pyrimidin-4-yl)amino)-4-((2-(1-hydroxycyclopropyl)ethyl)amino)pyridin-3-yl)methanone], the IC50 against EGFR L858R/C797S (setting [1]) was 120 nM; on EGFR wildtype (WT) (setting [2]) it was greater than 10000 nM; against EGFR del19/C797S (setting [3]) it was 3.5 nM; against EGFR L858R/T790M/C797S (setting [4]) it was 10 nM; against EGFR del19/T790M/C797S (setting [5]), 1.8 nM.
In the case of `C[C@]1(O)CC[C@@H](Nc2cc(Nc3ccnc(-c4cnn(S(=O)(=O)C5CC5)c4)n3)ncc2C(=O)NCCF)CC1` [Example 76, 6-((2-(1-(Cyclopropylsulfonyl)-1H-pyrazol-4-yl)pyrimidin-4-yl)amino)-N-(2-fluoroethyl)-4-(((1s,4s)-4-hydroxy-4-methylcyclohexyl)amino)nicotinamide], the IC50 against EGFR L858R/C797S (setting [1]) was 28.9 nM; on EGFR L858R/C797S (setting [6]), 2.7 nM; against EGFR wildtype (WT) (setting [2]), greater than 10000 nM; on EGFR wildtype (WT) (setting [7]), 12 nM; against EGFR del19/C797S (setting [3]) it was 2.3 nM; at EGFR del19/C797S (setting [8]) it was 0.9 nM. For the same compound, the IC50 against EGFR L858R/T790M/C797S (setting [4]) worked out at 0.7 nM; at EGFR L858R/T790M/C797S (setting [9]), 0.1 nM; on EGFR del19/T790M/C797S (setting [5]) it was 0.6 nM; on EGFR del19/T790M/C797S (setting [10]) it was 0.2 nM.
Regarding `CN(C)C[C@H]1CC[C@H](CNc2cc(Nc3ccnc(-c4cnn(S(=O)(=O)C5CC5)c4)n3)ncc2C(=O)C2CC2)CC1` [Example 58, Cyclopropyl(6-((2-(1-(cyclopropylsulfonyl)-1H-pyrazol-4-yl)pyrimidin-4-yl)amino)-4-((((1r,4r)-4-((dimethylamino)methyl)cyclohexyl)methyl)amino)pyridin-3-yl)methanone], the IC50 on EGFR L858R/C797S (setting [6]) amounted to 2.4 nM; on EGFR wildtype (WT) (setting [7]), 3.6 nM; at EGFR del19/C797S (setting [8]), 0.4 nM; on EGFR L858R/T790M/C797S (setting [9]), 0.1 nM; on EGFR del19/T790M/C797S (setting [10]), 0.1 nM.
Take `C[C@]1(O)CC[C@@H](Nc2cc(Nc3ccnc(-c4cnn(S(=O)(=O)C5CC5)c4)n3)ncc2C(=O)C2CC2)CC1` [Example 33, Cyclopropyl(6-((2-(1-(cyclopropylsulfonyl)-1H-pyrazol-4-yl)pyrimidin-4-yl)amino)-4-(((1s,4s)-4-hydroxy-4-methylcyclohexyl)amino)pyridin-3-yl)methanone]: the IC50 against EGFR L858R/C797S (setting [1]) was 6.5 nM; on EGFR L858R/C797S (setting [6]) it was 0.9 nM; against EGFR wildtype (WT) (setting [2]) it was greater than 10000 nM; at EGFR wildtype (WT) (setting [7]) it was 13.9 nM; on EGFR del19/C797S (setting [3]), 1.7 nM; on EGFR L858R/T790M/C797S (setting [4]), 0.8 nM. Also, the IC50 at EGFR L858R/T790M/C797S (setting [9]) was found to be 0.3 nM; at EGFR del19/T790M/C797S (setting [5]), 0.8 nM; on EGFR del19/T790M/C797S (setting [10]) it was 1 nM.
With `O=C(c1cnc(Nc2ccnc(-c3cnn(S(=O)(=O)C4CC4)c3)n2)cc1NC1CCC(NCCN2CCCCC2)CC1)C1CC1` (centres unmarked) [Example 56, Cyclopropyl(6-((2-(1-(cyclopropylsulfonyl)-1H-pyrazol-4-yl)pyrimidin-4-yl)amino)-4-((4-((2-(piperidin-1-yl)ethyl)amino)cyclohexyl)amino)pyridin-3-yl)methanone], the IC50 on EGFR L858R/C797S (setting [1]) came to 12.2 nM; on EGFR wildtype (WT) (setting [2]), 6300 nM; on EGFR del19/C797S (setting [3]), 7.6 nM; at EGFR L858R/T790M/C797S (setting [4]) it was 1.2 nM; on EGFR del19/T790M/C797S (setting [5]) it was 1 nM.
With `CN(C)C[C@H]1CC[C@H](COc2cc(Nc3ccnc(-c4cnn(S(=O)(=O)C5CC5)c4)n3)ncc2C(=O)C2CC2)CC1` [Example 66, Cyclopropyl(6-((2-(1-(cyclopropylsulfonyl)-1H-pyrazol-4-yl)pyrimidin-4-yl)amino)-4-(((1r,4r)-4-((dimethylamino)methyl)cyclohexyl)methoxy)pyridin-3-yl)methanone], the IC50 on EGFR L858R/C797S (setting [6]) amounted to 101 nM; on EGFR wildtype (WT) (setting [7]), 148 nM; at EGFR del19/C797S (setting [8]), 11.1 nM; at EGFR L858R/T790M/C797S (setting [9]), 0.4 nM; at EGFR del19/T790M/C797S (setting [10]) it was 0.1 nM.
On the same counts, the results for `CN(C)C1CCN(CCNc2cc(Nc3ccnc(-c4cnn(S(=O)(=O)C5CC5)c4)n3)ncc2C(=O)C2CC2)CC1` [Example 21, Cyclopropyl(6-((2-(1-(cyclopropylsulfonyl)-1H-pyrazol-4-yl)pyrimidin-4-yl)amino)-4-((2-(4-(dimethylamino)piperidin-1-yl)ethyl)amino)pyridin-3-yl)methanone] are 16.4 nM, 63.5 nM, 72.3 nM, 1.1 nM and 0.4 nM.
With `O=C(c1cnc(Nc2ccnc(-c3cnn(S(=O)(=O)C4CC4)c3)n2)cc1NC1CCN(C2COC2)CC1)C1CC1` [Example 38, Cyclopropyl(6-((2-(1-(cyclopropylsulfonyl)-1H-pyrazol-4-yl)pyrimidin-4-yl)amino)-4-((1-(oxetan-3-yl)piperidin-4-yl)amino)pyridin-3-yl)methanone], the IC50 against EGFR L858R/C797S (setting [1]) is 200 nM; on EGFR wildtype (WT) (setting [2]), greater than 10000 nM; against EGFR del19/C797S (setting [3]) it was 231 nM; against EGFR L858R/T790M/C797S (setting [4]), 9.9 nM; on EGFR del19/T790M/C797S (setting [5]), 2.7 nM.
For `O=C(c1cnc(Nc2ccnc(-c3cnn(S(=O)(=O)C4CC4)c3)n2)cc1N[C@H]1CC[C@@H](O)CC1)C1CC1` [Example 23, Cyclopropyl(6-((2-(1-(cyclopropylsulfonyl)-1H-pyrazol-4-yl)pyrimidin-4-yl)amino)-4-(((1s,4s)-4-hydroxycyclohexyl)amino)pyridin-3-yl)methanone], the IC50 against EGFR L858R/C797S (setting [1]) is 6.4 nM; at EGFR wildtype (WT) (setting [2]), 3410 nM; against EGFR del19/C797S (setting [3]), 2.4 nM; on EGFR L858R/T790M/C797S (setting [4]), 0.5 nM; on EGFR del19/T790M/C797S (setting [5]) it was 0.7 nM.
Take `C[C@]1(O)CC[C@@H](Nc2cc(Nc3ccnc(-c4cnn(S(=O)(=O)C5CC5)c4)n3)ncc2C(=O)CC2CCOCC2)CC1` [Example 40, 1-(6-((2-(1-(Cyclopropylsulfonyl)-1H-pyrazol-4-yl)pyrimidin-4-yl)amino)-4-(((1s,4s)-4-hydroxy-4-methylcyclohexyl)amino)pyridin-3-yl)-2-(tetrahydro-2H-pyran-4-yl)ethan-1-one]: the IC50 on EGFR L858R/C797S (setting [1]) is 189 nM; at EGFR L858R/C797S (setting [6]) it was 5.1 nM; against EGFR wildtype (WT) (setting [2]), greater than 10000 nM; at EGFR wildtype (WT) (setting [7]), 64.5 nM; against EGFR del19/C797S (setting [3]), 16.3 nM; on EGFR del19/C797S (setting [8]) it was 3.1 nM. The IC50 on EGFR L858R/T790M/C797S (setting [9]) was found to be 0.2 nM; at EGFR del19/T790M/C797S (setting [5]), 0.6 nM; on EGFR del19/T790M/C797S (setting [10]), 0.4 nM.
In the case of `CN(C)CCN1CCC(Nc2cc(Nc3ccnc(-c4cnn(S(=O)(=O)C5CC5)c4)n3)ncc2C(=O)C2CC2)CC1` [Example 37, Cyclopropyl(6-((2-(1-(cyclopropylsulfonyl)-1H-pyrazol-4-yl)pyrimidin-4-yl)amino)-4-((1-(2-(dimethylamino)ethyl)piperidin-4-yl)amino)pyridin-3-yl)methanone], the IC50 against EGFR L858R/C797S (setting [1]) is 168 nM; on EGFR L858R/C797S (setting [6]), 9.7 nM; against EGFR wildtype (WT) (setting [2]) it was greater than 10000 nM; at EGFR wildtype (WT) (setting [7]) it was 113 nM; against EGFR del19/C797S (setting [3]), 79.9 nM; on EGFR del19/C797S (setting [8]) it was 36.9 nM. In addition, the IC50 on EGFR L858R/T790M/C797S (setting [4]) was 2 nM; at EGFR L858R/T790M/C797S (setting [9]), 0.4 nM; against EGFR del19/T790M/C797S (setting [5]), 1.2 nM; on EGFR del19/T790M/C797S (setting [10]), 1 nM.
